Measured values: publication PMC9154192 (PLoS Biology, 2022)
Like-named read-outs stand apart in the source and are kept apart here.

Format: in vivo, SD rats
Conditions: for Adrenal gland: Vacuolation, cortical, diffuse, Grade 1, no. of animals / Adrenal gland: Vacuolation, cortical, diffuse, Grade 2, no. of animals / Epididymis: Infiltrate, inflammatory cell, interstitum, Grade 1, no. of animals / Eye: Dysplasia, retina, focal, Grade 1, no. of animals / Harderian gland: Infiltrate, inflammatory cell, focal, Grade 1, no. of animals / Kidney: Basophilia, tubule, cortex, Grade 1, no. of animals / Kidney: Cast, hyaline, cortex, Grade 1, no. of animals / Kidney: Hydronephrosis, unilateral, Grade 3, no. of animals / Kidney: Infiltrate, inflammatory cell, interstitium, Grade 1, no. of animals / Kidney: Infiltrate, inflammatory cell, interstitium, Grade 2, no. of animals / Kidney: Mineralization, cortex, Grade 1, no. of animals / Kidney: Mineralization, corticomedullary junction, Grade 1, no. of animals / Kidney: Mineralization, medulla, Grade 1, no. of animals / Liver: Extramedullary hematopoiesis, Grade 1, no. of animals / Liver: Fatty change, sporadic/periportal, Grade 1, no. of animals / Liver: Fatty change, sporadic/periportal, Grade 2, no. of animals / Liver: Infiltrate, mononuclear cell, focal, Grade 1, no. of animals / Liver: Infiltrate, mononuclear cell, focal, Grade 2, no. of animals / Lung including bronchi: Alveolar macrophage aggregation, focal, Grade 1, no. of animals / Lung including bronchi: Infiltrate, mononuclear cell, alveolar, focal, Grade 1, no. of animals / Pituitary gland: Cyst, pars nervosa, Presence, no. of animals / Prostate: Infiltrate, inflammatory cell, interstitium, Grade 1, no. of animals / Salivary gland (parotid): Focus, hypertrophic, basophilic, focal, Grade 1, no. of animals / Spleen: Pigmentation, Grade 1, no. of animals / Submandibular lymph node: Increased, plasma cell, Grade 2, no. of animals / Thyroid gland: Ectopic thymus, Presence, no. of animals / Thyroid gland: Ultimobranchial cyst, Presence, no. of animals: female
Method: A subchronic toxicity study was performed for PP2S. Female and male rats were divided into a control group (0 mg/kg/day, n = 15), a low-dose group (167 mg/kg/day, n = 10), a medium-dose group (500 mg/kg/day, n = 10), and a high-dose group (1,500 mg/kg/day, n = 15), respectively. Thus, there were a total of 8 groups. The drug was administered by oral gavage at 10 mL/kg body weight daily for 4 weeks. Five animals each in the control and high-dose groups continued their treatments for 2 more weeks. Clinical symptoms were observed, and body weight was measured during the test period for a total of 6 weeks; 0.5% methyl cellulose 1,500 cP (Sigma, USA) in water for injection (JW Pharmaceutical, Korea) was used as a vehicle. Control animals were treated with only the same volume of the vehicle.
Histopathological examination was performed while performing a 4-week repeated oral toxicity study for PP2S. Organs and tissues from all animals subjected to autopsy were removed and fixed in 10% neutral buffered formalin. Among them, testes, eyeballs and optic nerve were fixed in Davidson's fixative and then in 10% neutral buffered formalin. For organs/tissues subjected to histopathological examination, specimens were prepared according to the histopathological specimen preparation SOP. For histopathological examination, organs and tissues of all subjects in the control group and the high-dose group, and macroscopically observed subjects in the low-dose group were examined. […] In addition, all other changes observed in histopathological examination were judged to be spontaneous or accidental. Those not specifically observed for all groups by organ were marked with a 'dash' symbol. Grade 1, minimal; Grade 2, slight; Grade 3, moderate; Grade 4, severe.

[1] = all groups (167, 500, 1,500 mg/kg; male, female; dosing and recovery period)
[2] = G2 167 mg/kg, dosing period, n=10
[3] = G3 500 mg/kg, dosing period, n=10
[4] = G4 1,500 mg/kg, dosing period, n=10
[5] = G4 1,500 mg/kg, recovery period, n=5

With CCCCOc1ccc2cc(CN3C(=O)CC[C@H]3C(=O)OC)c3cc(OC)c(OC)cc3c2c1 [PP2S, Methyl (S)-1-((3-butoxy-6,7-dimethoxyphenanthren-9-yl)methyl)-5-oxopyrrolidine-2-carboxylate] the “histopathological change due to administration” value (all administration groups, 4-week repeated oral toxicity study) was “no change was observed”, the “Histopathological findings: Brain” value [1] was “-” and the “Histopathological findings: Cecum” value [1] was “-”. For the same compound, the “Histopathological findings: Colon” value [1] was “-”, the “Histopathological findings: Duodenum” value [1] was “-” and the “Histopathological findings: Exophagus” value [1] was “-”. For the same compound, the “Histopathological findings: Femur including bone marrow” value [1] was “-”, the “Histopathological findings: Heart” value [1] was “-” and the “Histopathological findings: Ileum” value [1] was “-”. The “Histopathological findings: Jejunum” value [1] was “-”, the “Histopathological findings: Mammary gland (inguinal)” value [1] was “-” and the “Histopathological findings: Mesenteric lymph node” value [1] was “-”. For the same compound, the “Histopathological findings: Optic nerve” value [1] was “-”, the “Histopathological findings: Pancreas” value [1] was “-” and the “Histopathological findings: Parathyroid gland” value [1] was “-”. For the same compound, the “Histopathological findings: Rectum” value [1] was “-”, the “Histopathological findings: Salivary gland (sublingual)” value [1] was “-” and the “Histopathological findings: Salivary gland (submandibular)” value [1] was “-”. The “Histopathological findings: Seminal vesicle” value [1] was “-”, the “Histopathological findings: Skin (inguinal)” value [1] was “-” and the “Histopathological findings: Spinal cord (thoracic)” value [1] was “-”. The “Histopathological findings: Sternum including bone marrow” value [1] was “-”, the “Histopathological findings: Stomach” value [1] was “-” and the “Histopathological findings: Testis” value [1] was “-”. For the same compound, the “Histopathological findings: Thymus” value [1] was “-”, the “Histopathological findings: Tongue” value [1] was “-” and the “Histopathological findings: Trachea” value [1] was “-”. The “Histopathological findings: Urinary bladder” value [1] was “-”, the “Histopathological findings: Uterus” value [1] was “-” and the “Histopathological findings: Vagina” value [1] was “-”. For the same compound, the “Adrenal gland: Vacuolation, cortical, diffuse, Grade 1, no. of animals” value (“Adrenal gland … Grade 1, no. of animals” below) [2] was 0, the “Adrenal gland: Vacuolation, cortical, diffuse, Grade 2, no. of animals” value (“Adrenal gland … Grade 2, no. of animals” for short) [2] was 0 and the “Epididymis: Infiltrate, inflammatory cell, interstitum, Grade 1, no. of animals” value (from here on “Epididymis: Infiltrate … no. of animals”) [2] was 0. The “Eye: Dysplasia, retina, focal, Grade 1, no. of animals” value (shortened to “Eye: Dysplasia … no. of animals”) [2] was 0, the “Harderian gland: Infiltrate, inflammatory cell, focal, Grade 1, no. of animals” value (shortened to “Harderian gland: Infiltrate … no. of animals”) [2] was 0 and the “Kidney: Basophilia, tubule, cortex, Grade 1, no. of animals” value (shortened to “Kidney: Basophilia … no. of animals”) [2] was 0. The “Kidney: Cast, hyaline, cortex, Grade 1, no. of animals” value (“Kidney: Cast … no. of animals” below) [2] was 0, the “Kidney: Hydronephrosis, unilateral, Grade 3, no. of animals” value (“Kidney: Hydronephrosis … no. of animals” for short) [2] was 0 and the “Kidney: Infiltrate, inflammatory cell, interstitium, Grade 1, no. of animals” value (shortened to “Kidney: Infiltrate … Grade 1, no. of animals”) [2] was 0. The “Kidney: Infiltrate, inflammatory cell, interstitium, Grade 2, no. of animals” value (“Kidney: Infiltrate … Grade 2, no. of animals” for short) [2] was 0, the “Kidney: Mineralization, cortex, Grade 1, no. of animals” value [2] was 0 and the “Kidney: Mineralization, corticomedullary junction, Grade 1, no. of animals” value [2] was 0. For the same compound, the “Kidney: Mineralization, medulla, Grade 1, no. of animals” value [2] was 0, the “Liver: Extramedullary hematopoiesis, Grade 1, no. of animals” value [2] was 0 and the “Liver: Fatty change, sporadic/periportal, Grade 1, no. of animals” value [2] was 0. The “Liver: Fatty change, sporadic/periportal, Grade 2, no. of animals” value [2] was 0, the “Liver: Infiltrate, mononuclear cell, focal, Grade 1, no. of animals” value (“Liver: Infiltrate … Grade 1, no. of animals” below) [2] was 0 and the “Liver: Infiltrate, mononuclear cell, focal, Grade 2, no. of animals” value (shortened to “Liver: Infiltrate … Grade 2, no. of animals”) [2] was 0. For the same compound, the “Lung including bronchi: Alveolar macrophage aggregation, focal, Grade 1, no. of animals” value [2] was 0, the “Lung including bronchi: Infiltrate, mononuclear cell, alveolar, focal, Grade 1, no. of animals” value [2] was 0 and the “Pituitary gland: Cyst, pars nervosa, Presence, no. of animals” value (“Pituitary gland: Cyst … no. of animals” for short) [2] was 0. For the same compound, the “Prostate: Infiltrate, inflammatory cell, interstitium, Grade 1, no. of animals” value (“Prostate: Infiltrate … no. of animals” for short) [2] was 0, the “Salivary gland (parotid): Focus, hypertrophic, basophilic, focal, Grade 1, no. of animals” value (“Salivary gland (parotid): Focus … no. of animals” below) [2] was 0 and the “Spleen: Pigmentation, Grade 1, no. of animals” value (from here on “Spleen … no. of animals”) [2] was 0. The “Submandibular lymph node: Increased, plasma cell, Grade 2, no. of animals” value [2] was 0, the “Thyroid gland: Ectopic thymus, Presence, no. of animals” value [2] was 0 and the “Thyroid gland: Ultimobranchial cyst, Presence, no. of animals” value [2] was 0. For the same compound, the “Adrenal gland … Grade 1, no. of animals” value [3] was 0, the “Adrenal gland … Grade 2, no. of animals” value [3] was 0 and the “Epididymis: Infiltrate … no. of animals” value [3] was 0. The “Eye: Dysplasia … no. of animals” value [3] was 0, the “Harderian gland: Infiltrate … no. of animals” value [3] was 0 and the “Kidney: Basophilia … no. of animals” value [3] was 0. The “Kidney: Cast … no. of animals” value [3] was 0, the “Kidney: Hydronephrosis … no. of animals” value [3] was 0 and the “Kidney: Infiltrate … Grade 1, no. of animals” value [3] was 0. The “Kidney: Infiltrate … Grade 2, no. of animals” value [3] was 0, the “Kidney: Mineralization, cortex, Grade 1, no. of animals” value [3] was 0 and the “Kidney: Mineralization, corticomedullary junction, Grade 1, no. of animals” value [3] was 0. For the same compound, the “Kidney: Mineralization, medulla, Grade 1, no. of animals” value [3] was 0, the “Liver: Extramedullary hematopoiesis, Grade 1, no. of animals” value [3] was 0 and the “Liver: Fatty change, sporadic/periportal, Grade 1, no. of animals” value [3] was 0. For the same compound, the “Liver: Fatty change, sporadic/periportal, Grade 2, no. of animals” value [3] was 0, the “Liver: Infiltrate … Grade 1, no. of animals” value [3] was 0 and the “Liver: Infiltrate … Grade 2, no. of animals” value [3] was 0. The “Lung including bronchi: Alveolar macrophage aggregation, focal, Grade 1, no. of animals” value [3] was 0, the “Lung including bronchi: Infiltrate, mononuclear cell, alveolar, focal, Grade 1, no. of animals” value [3] was 0 and the “Pituitary gland: Cyst … no. of animals” value [3] was 0. For the same compound, the “Prostate: Infiltrate … no. of animals” value [3] was 0, the “Salivary gland (parotid): Focus … no. of animals” value [3] was 0 and the “Spleen … no. of animals” value [3] was 0. For the same compound, the “Submandibular lymph node: Increased, plasma cell, Grade 2, no. of animals” value [3] was 0, the “Thyroid gland: Ectopic thymus, Presence, no. of animals” value [3] was 0 and the “Thyroid gland: Ultimobranchial cyst, Presence, no. of animals” value [3] was 0. The “Adrenal gland … Grade 1, no. of animals” value [4] was 0, the “Adrenal gland … Grade 2, no. of animals” value [4] was 0 and the “Epididymis: Infiltrate … no. of animals” value [4] was 0. For the same compound, the “Eye: Dysplasia … no. of animals” value [4] was 1, the “Harderian gland: Infiltrate … no. of animals” value [4] was 0 and the “Kidney: Basophilia … no. of animals” value [4] was 1. The “Kidney: Cast … no. of animals” value [4] was 0, the “Kidney: Hydronephrosis … no. of animals” value [4] was 1 and the “Kidney: Infiltrate … Grade 1, no. of animals” value [4] was 4. The “Kidney: Infiltrate … Grade 2, no. of animals” value [4] was 0, the “Kidney: Mineralization, cortex, Grade 1, no. of animals” value [4] was 0 and the “Kidney: Mineralization, corticomedullary junction, Grade 1, no. of animals” value [4] was 1. For the same compound, the “Kidney: Mineralization, medulla, Grade 1, no. of animals” value [4] was 0, the “Liver: Extramedullary hematopoiesis, Grade 1, no. of animals” value [4] was 0 and the “Liver: Fatty change, sporadic/periportal, Grade 1, no. of animals” value [4] was 5. The “Liver: Fatty change, sporadic/periportal, Grade 2, no. of animals” value [4] was 1, the “Liver: Infiltrate … Grade 1, no. of animals” value [4] was 2 and the “Liver: Infiltrate … Grade 2, no. of animals” value [4] was 2. For the same compound, the “Lung including bronchi: Alveolar macrophage aggregation, focal, Grade 1, no. of animals” value [4] was 0, the “Lung including bronchi: Infiltrate, mononuclear cell, alveolar, focal, Grade 1, no. of animals” value [4] was 0 and the “Pituitary gland: Cyst … no. of animals” value [4] was 0. The “Prostate: Infiltrate … no. of animals” value [4] was 0, the “Salivary gland (parotid): Focus … no. of animals” value [4] was 1 and the “Spleen … no. of animals” value [4] was 4. The “Submandibular lymph node: Increased, plasma cell, Grade 2, no. of animals” value [4] was 0, the “Thyroid gland: Ectopic thymus, Presence, no. of animals” value [4] was 2 and the “Thyroid gland: Ultimobranchial cyst, Presence, no. of animals” value [4] was 4. The “Adrenal gland … Grade 1, no. of animals” value [5] was 0, the “Adrenal gland … Grade 2, no. of animals” value [5] was 0 and the “Epididymis: Infiltrate … no. of animals” value [5] was 0. The “Eye: Dysplasia … no. of animals” value [5] was 0, the “Harderian gland: Infiltrate … no. of animals” value [5] was 0 and the “Kidney: Basophilia … no. of animals” value [5] was 0. For the same compound, the “Kidney: Cast … no. of animals” value [5] was 0, the “Kidney: Hydronephrosis … no. of animals” value [5] was 0 and the “Kidney: Infiltrate … Grade 1, no. of animals” value [5] was 3. The “Kidney: Infiltrate … Grade 2, no. of animals” value [5] was 0, the “Kidney: Mineralization, cortex, Grade 1, no. of animals” value [5] was 0 and the “Kidney: Mineralization, corticomedullary junction, Grade 1, no. of animals” value [5] was 0.
